The values that follow are results of earlier work, collected in patent US8932634B2, “Hydrocolloid carrier beads with inert filler material” (Yissum Research Development Company of the Hebrew …, priority 2006, dated 2015).

Molecules are shown by their SMILES. Counter-ions that a name gives are not always drawn.

`COc1ccc([C@@H]2Sc3ccccc3N(CCN(C)C)C(=O)[C@@H]2OC(C)=O)cc1` [Diltiazem hydrochloride]: the solubility in water result is reported as “high”.
